Consider 3 compounds from PubChem BioAssay AID1259407 (Chemical Carcinogenesis Research Information System (CCRIS), 2018).

Calls of active or inactive are those of the source. The rule behind the calls is not given here.

The data set relates to CCRIS mutagenicity, Ames/micronucleus/aberration tests. Description: CCRIS mutagenicity studies.
Setting [1] is: Test System: AMES SALMONELLA TYPHIMURIUM, Strain/Indicator: TA98, Metabolic Activation: NONE, Method: PREINCUBATION
The mark [2] stands for this setting: Test System: AMES SALMONELLA TYPHIMURIUM, Strain/Indicator: TA100, Metabolic Activation: NONE, Method: PREINCUBATION

For `CCCCc1ccc(N=Cc2ccc(OC)cc2)cc1`, the mutagenic call was “inactive; negative” under setting [1]; “active; positive” (Test System: AMES SALMONELLA TYPHIMURIUM, Strain/Indicator: TA100, Metabolic Activation: HAMSTER, LIVER, S-9, AROCLOR 1254 (30%), Method: PREINCUBATION); “inactive; negative” under setting [2]; “inactive; negative” (Test System: AMES SALMONELLA TYPHIMURIUM, Strain/Indicator: TA100, Metabolic Activation: RAT, LIVER, S-9, AROCLOR 1254 (30%), Method: PREINCUBATION).

Consider `CC(C)N`, for which the mutagenic call was “inactive; negative” (Test System: AMES SALMONELLA TYPHIMURIUM, Strain/Indicator: TA98, Metabolic Activation: HAMSTER, LIVER, S-9, AROCLOR 1254 (10%), Method: PREINCUBATION); “inactive; negative” under setting [1]; “inactive; negative” (Test System: AMES SALMONELLA TYPHIMURIUM, Strain/Indicator: TA98, Metabolic Activation: RAT, LIVER, S-9, AROCLOR 1254 (10%), Method: PREINCUBATION); “inactive; negative” (Test System: AMES SALMONELLA TYPHIMURIUM, Strain/Indicator: TA100, Metabolic Activation: HAMSTER, LIVER, S-9, AROCLOR 1254 (10%), Method: PREINCUBATION); “inactive; negative” under setting [2]; “inactive; negative” (Test System: AMES SALMONELLA TYPHIMURIUM, Strain/Indicator: TA100, Metabolic Activation: RAT, LIVER, S-9, AROCLOR 1254 (10%), Method: PREINCUBATION). Besides, the mutagenic call reads like this: (Test System: AMES SALMONELLA TYPHIMURIUM, Strain/Indicator: TA1535, Metabolic Activation: HAMSTER, LIVER, S-9, AROCLOR 1254 (10%), Method: PREINCUBATION) “inactive; negative”; (Test System: AMES SALMONELLA TYPHIMURIUM, Strain/Indicator: TA1535, Metabolic Activation: NONE, Method: PREINCUBATION) “inactive; negative”; (Test System: AMES SALMONELLA TYPHIMURIUM, Strain/Indicator: TA1535, Metabolic Activation: RAT, LIVER, S-9, AROCLOR 1254 (10%), Method: PREINCUBATION) “inactive; negative”; (Test System: AMES SALMONELLA TYPHIMURIUM, Strain/Indicator: TA1537, Metabolic Activation: HAMSTER, LIVER, S-9, AROCLOR 1254 (10%), Method: PREINCUBATION) “inactive; negative”; (Test System: AMES SALMONELLA TYPHIMURIUM, Strain/Indicator: TA1537, Metabolic Activation: NONE, Method: PREINCUBATION) “inactive; negative”; (Test System: AMES SALMONELLA TYPHIMURIUM, Strain/Indicator: TA1537, Metabolic Activation: RAT, LIVER, S-9, AROCLOR 1254 (10%), Method: PREINCUBATION) “inactive; negative”. Besides, where the note is “Test System: UDS RODENT HEPATOCYTES, Strain/Indicator: THY INCORP (NON-S-PHASE), Metabolic Activation: NONE, Method: LIQUID SCINTILLATION COUNTING”, the mutagenic call was “inactive; negative”.

`C/C=C/C1=CC(=O)[C@]23C[C@H]2C(C)(C)O[C@]3(O)C1=O`: the mutagenic call is, setting by setting: (Test System: AMES SALMONELLA TYPHIMURIUM, Strain/Indicator: TA97, Metabolic Activation: NONE) “active; positive”; (Test System: AMES SALMONELLA TYPHIMURIUM, Strain/Indicator: TA98, Metabolic Activation: NONE) “inactive; negative”; (Test System: AMES SALMONELLA TYPHIMURIUM, Strain/Indicator: TA100, Metabolic Activation: NONE) “active; positive”; (Test System: AMES SALMONELLA TYPHIMURIUM, Strain/Indicator: TA102, Metabolic Activation: NONE) “active; positive”.
